The results in this text go back to patent US20140227375A1, “PIP-2 Inhibition-Based Antiviral and Anti-Hyperlipidemic Therapies” (priority 2008, published 2014).

By EC50 is commonly meant the midpoint of the concentration-response curve.

This experiment has as its target HCV replication. Kind of experiment: Luciferase reporter-linked transient HCV replication assay (FL-J6/JFH-5′C19Rluc2AUbi RNA). It counts as cell-based, hepatitis C virus (HCV). As to the method: FIGS. 7A-7B. A PIP-2 ligand inhibits HCV replication in a dose-dependent manner. Luciferase reporter-linked HCV replication assay. Huh 7.5 cells were electroporated with 10 ug of in vitro-transcribed wild type, FL-J6/JFH-5′C19Rluc2AUbi RNAs. Electroporated cells were treated with […] of neomyin. Renilla luciferase activities were measured at 5 days after electroporation. Alamar blue assays were performed to compare relative cell viabilities.
The NS5A PIP2 interaction is amenable to pharmacologic disruption. […] Such inhibitors represent a valuable new class of anti-HCV agents to be included in future therapeutic cocktails designed to maximize efficiency of, and minimize resistance to, therapies for treating hepatitis C.
The electroporated cells were diluted in 18 ml of cell culture medium. 1 ml of cells was aliquoted in 6 well tissue culture plates. Electroporated cells were treated with 0, 172, 345, 689, 1378, and 2756 μM of neomyin for 5 days. Renilla luciferase activities were measured by using renilla luciferase kit from Promega (Madison, Wis.).

In the case of neomycin, under “Renilla luciferase activity 5 days after electroporation, read-out: EC50 against HCV replication”, the EC50 amounted to 200 µM. In addition, the “inhibition of HCV genome replication” value (increasing concentrations of neomycin (0-2756 μM), 5 days) is “dose-dependent increase in inhibition of HCV genome replication”.
